Here are results for 18 compounds from patent publication US10307426B2, “Therapeutic compounds and compositions, and methods of use thereof” (Genentech, Inc., priority 2018, dated 2019).

Each structure is given as a SMILES string. Read-outs that look alike come from different tables or passages of the source.

The test system of assay [1] is JAK1-dependent STAT6 phosphorylation downstream of IL-13 stimulation in BEAS-2B human bronchial epithelial cells. Briefly: JAK1 pathway assay in cell lines: IL-13 stimulated STAT6 phosphorylation in BEAS-2B cells (MSD). It is filed as cell-based. The note with it: 1 hr compound incubation, IL-13 stimulation 15 min, read-out: IL-13 p-STAT6 BEAS-2B IC50. The method, then: Inhibitor potency (EC50) was determined in cell-based assays designed to measure JAK1 dependent STAT phosphorylation. As noted above, inhibition of IL-4, IL-13, and IL-9 signaling by blocking the Jak/Stat signaling pathway can alleviate asthmatic symptoms in pre-clinical lung inflammation models (Mathew et al., 2001, J Exp Med 193(9): 1087-1096; Kudlacz et. al., 2008, Eur J. Pharmacol 582(1-3): 154-161).
In one assay approach, TF-1 human erythroleukemia cells obtained from the American Type Culture Collection (ATCC; Manassas, Va.) were used to measure JAK1-dependent STAT6 phosphorylation downstream of IL-13 stimulation. Prior to use in the assays, TF-1 cells were starved of GM-CSF overnight in OptiMEM medium (Life Technologies, Grand Island, N.Y.) supplemented with 0.5% charcoal/dextran stripped fetal bovine serum (FBS), 0.1 mM non-essential amino acids (NEAA), and 1 mM sodium pyruvate. The assays were run in 384-well plates in serum-free OptiMEM medium using 300,000 cells per well. In a second assay approach, BEAS-2B human bronchial epithelial cells obtained from ATCC were plated at 100,000 cells per well of a 96-well plate one day prior to the experiment. The BEAS-2B assay was run in complete growth medium (bronchial epithelial basal medium plus bulletkit; Lonza; Basel, Switzerland).
Test compounds were serially diluted 1:2 in DMSO and then diluted 1:50 in medium just before use. Diluted compounds were added to the cells, for a final DMSO concentration of 0.2%, and incubated for 30 min (for the TF-1 assay) or 1 hr (for the BEAS-2B assay) at 37° C. Then, cells were stimulated with human recombinant cytokine at their respective EC90 concentrations, as previously determined for each individual lot. Cells were stimulated with IL-13 (R&D Systems, Minneapolis, Minn.) for 15 min at 37° C. The TF-1 cell reactions were stopped by the direct addition of 10× lysis buffer (Cell Signaling Technologies, Danvers, Mass.), whereas the BEAS-2B cell incubations were halted by the removal of medium and addition of 1× lysis buffer. The resultant samples were frozen in the plates at −80° C. Compound mediated inhibition of STAT6 phosphorylation was measured in the cell lysates using MesoScale Discovery (MSD) technology (Gaithersburg, Md.). EC50 values were determined as the concentration of compound required for 50% inhibition of STAT phosphorylation relative to that measured for the DMSO control.

For assay [2], the target named is isolated recombinant JAK1 kinase domain (Homo sapiens (Human), UniProt P23458). The assay can be described thus: JAK1 enzyme assay (Caliper LabChip, peptide phosphorylation, Ki). It is filed as biochemical. Conditions: 1.5 nM JAK1, ATP 25 μM, Morrison tight binding model. The method, then: (§1) The activity of the isolated recombinant JAK1 and JAK2 kinase domain was measured by monitoring phosphorylation of a peptide derived from JAK3 (Val-Ala-Leu-Val-Asp-Gly-Tyr-Phe-Arg-Leu-Thr-Thr, fluorescently labeled on the N-terminus with 5-carboxyfluorescein) using the Caliper LabChip® technology (Caliper Life Sciences, Hopkinton, Mass.). […] Reactions were incubated at 22° C. in 384-well polypropylene microtiter plates for 30 minutes and then stopped by addition of 25 μL of an EDTA containing solution (100 mM HEPES buffer (pH 7.2), 0.015% Brij-35, 150 mM EDTA), resulting in a final EDTA concentration of 50 mM. After termination of the kinase reaction, the proportion of phosphorylated product was determined as a fraction of total peptide substrate using the Caliper LabChip® 3000 according to the manufacturer's specifications. Ki values were then determined using the Morrison tight binding model (Morrison, J. F., Biochim. Biophys. Acta. 185:269-296 (1969); William, J. W. and Morrison, J. F., Meth. Enzymol., 63:437-467 (1979)) modified for ATP-competitive inhibition [Ki=Ki,app/(1+[ATP]/Km,app)].

Assay [3] addresses isolated recombinant JAK2 kinase domain (Homo sapiens (Human), UniProt O60674). The assay can be described thus: JAK2 enzyme assay (Caliper LabChip, peptide phosphorylation, Ki). The note with it: 0.2 nM JAK2, ATP 25 μM, Morrison tight binding model. It counts as biochemical. The method, then:
as §1

Sequence of isolated recombinant JAK2 kinase domain (O60674 849-1124): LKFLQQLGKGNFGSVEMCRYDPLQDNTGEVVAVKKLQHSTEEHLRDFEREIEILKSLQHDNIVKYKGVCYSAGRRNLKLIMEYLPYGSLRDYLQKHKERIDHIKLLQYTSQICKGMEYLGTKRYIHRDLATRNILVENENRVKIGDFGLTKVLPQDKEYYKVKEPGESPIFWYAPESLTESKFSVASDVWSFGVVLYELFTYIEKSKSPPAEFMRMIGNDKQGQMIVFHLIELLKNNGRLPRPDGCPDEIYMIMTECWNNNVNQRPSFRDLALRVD
Sequence of isolated recombinant JAK1 kinase domain (P23458 875-1153): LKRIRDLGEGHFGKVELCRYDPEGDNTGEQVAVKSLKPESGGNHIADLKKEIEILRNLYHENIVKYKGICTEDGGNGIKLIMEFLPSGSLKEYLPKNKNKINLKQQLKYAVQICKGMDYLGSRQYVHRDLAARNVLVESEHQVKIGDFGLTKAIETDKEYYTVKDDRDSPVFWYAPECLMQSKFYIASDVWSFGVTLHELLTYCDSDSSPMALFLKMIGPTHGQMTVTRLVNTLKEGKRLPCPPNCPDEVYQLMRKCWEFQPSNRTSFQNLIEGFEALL

With `CN(C)C(=O)Cn1cc(NC(=O)c2cnn3cccnc23)c(-c2cc(C(F)CF)ccc2OC(F)F)n1` (single isomer, unassigned) [Example 4], the IC50 (as a rule, the concentration needed to halve the response being measured) in assay [1] stood at 83.8 nM. In addition, the Ki (usually a dissociation constant, usually derived from enzyme kinetics or from competition with a known ligand) in assay [2] was 5.84 nM; in assay [3], 3.26 nM.
Regarding `CN(C)C(=O)Cn1cc(NC(=O)c2cnn3cccnc23)c(-c2cc(C(F)CF)ccc2OC(F)F)n1` (single isomer, unassigned) [Example 5], in assay [1], the IC50 is 6.7 nM. For the same compound, the Ki in assay [2] turned out to be 0.17 nM; in assay [3], 0.38 nM.
With `CC(C(=O)N(C)C)n1cc(NC(=O)c2cnn3cccnc23)c(-c2cc(Cl)ccc2OC(F)F)n1` (single isomer, unassigned) [Example 10], the IC50 in assay [1] stood at 16.6 nM. Besides, the inhibition constant (Ki) in assay [2] was determined as 0.41 nM; in assay [3], 0.83 nM.
Consider `CC(C(=O)N(C)C)n1cc(NC(=O)c2cnn3cccnc23)c(-c2cc(Cl)ccc2OC(F)F)n1` (single isomer, unassigned) [Example 11], for which the IC50 in assay [1] came to 41.8 nM. Moreover, the results for the Ki in assay [2] and in assay [3] were 0.58 nM and 1.26 nM, respectively.
`CN(C)C(=O)Cn1cc(NC(=O)c2cnn3cccnc23)c(-c2cc([C@@H]3C[C@H]3C#N)ccc2OC(F)F)n1` [Example 1, N-(3-(5-((1R,2R)-2-cyanocyclopropyl)-2-(difluoromethoxy)phenyl)-1-(2-(dimethylamino)-2-oxoethyl)-1H-pyrazol-4-yl)pyrazolo[1,5-a]pyrimidine-3-carboxamide]: the IC50 in assay [1] (Homo sapiens, BEAS-2B) turned out to be 9.9 nM. Further, the Ki in assay [2] was found to be 0.25 nM; in assay [3], 0.61 nM.
As to `CN(C)C(=O)Cn1cc(NC(=O)c2cnn3cccnc23)c(-c2cc(I)ccc2OC(F)F)n1` [Example 2, N-[3-[2-(difluoromethoxy)-5-iodophenyl]-1-[(dimethylcarbamoyl)methyl]-1H-pyrazol-4-yl]pyrazolo[1,5-a]pyrimidine-3-carboxamide], the IC50 in assay [1] (Homo sapiens, BEAS-2B) turned out to be 6 nM. Also, the Ki in assay [2] stood at 0.25 nM; in assay [3] it was 0.17 nM.
Taken in the same sequence, the figures for `CN(C)C(=O)Cn1cc(NC(=O)c2c(N)nn3cccnc23)c(-c2cc(Cl)ccc2OC(F)F)n1` [Example 3, 2-amino-N-(3-(5-chloro-2-(difluoromethoxy)phenyl)-1-(2-(dimethylamino)-2-oxoethyl)-1H-pyrazol-4-yl)pyrazolo[1,5-a]pyrimidine-3-carboxamide] were 10.3 nM, 0.34 nM and 0.77 nM.
The corresponding values for `CN(C)C(=O)Cn1cc(NC(=O)c2cnn3cccnc23)c(-c2cc(C(F)F)ccc2OC(F)F)n1` [Example 6, N-(3-(2-(difluoromethoxy)-5-(difluoromethyl)phenyl)-1-(2(dimethylamino)-2-oxoethyl)-1H-pyrazol-4-yl)pyrazolo[1,5-a]pyrimidine-3-carboxamide] are 9.9 nM, 0.15 nM and 0.25 nM.
Consider `CN(C)C(=O)Cn1cc(NC(=O)c2cnn3cccnc23)c(-c2cc(CC(F)F)ccc2OC(F)F)n1` [Example 7, N-(3-(5-(2,2-difluoroethyl)-2-(difluoromethoxy)phenyl)-1-(2-(dimethylamino)-2-oxoethyl)-1H-pyrazol-4-yl)pyrazolo[1,5-a]pyrimidine-3-carboxamide], for which the IC50 in assay [1] (Homo sapiens, BEAS-2B) stood at 28.9 nM. Moreover, the Ki in assay [2] came to 0.52 nM; in assay [3], 1.15 nM.
For `CN(C)C(=O)Cn1cc(NC(=O)c2cnn3cccnc23)c(-c2cc(Oc3ccc(C(=O)N(C)C)cc3)ccc2OC(F)F)n1` [Example 8, N-(3-(2-(difluoromethoxy)-5-(4-(dimethylcarbamoyl)phenoxy)phenyl)-1-(2-(dimethylamino)-2-oxoethyl)-1H-pyrazol-4-yl)pyrazolo[1,5-a]pyrimidine-3-carboxamide], the IC50 in assay [1] (Homo sapiens, BEAS-2B) is 43.9 nM. The Ki in assay [2] was determined as 0.83 nM; in assay [3] it was 1.81 nM.
`CN(C)C(=O)Cn1cc(NC(=O)c2cnn3cccnc23)c(-c2cc(CCF)ccc2OC(F)F)n1` [Example 9, N-(3-(2-(difluoromethoxy)-5-(2-fluoroethyl)phenyl)-1-(2-(dimethylamino)-2-oxoethyl)-1H-pyrazol-4-yl)pyrazolo[1,5-a]pyrimidine-3-carboxamide]: the IC50 in assay [1] (Homo sapiens, BEAS-2B) was determined as 269 nM. The Ki in assay [2] amounted to 0.97 nM; in assay [3], 1.92 nM.
Turning to `CN(C)C(=O)Cn1cc(NC(=O)c2cnn3cccnc23)c(-c2cc(Oc3ccc4c(c3)CNCC4)ccc2OC(F)F)n1` [Example 12, N-(3-(2-(difluoromethoxy)-5-((1,2,3,4-tetrahydroisoquinolin-7-yl)oxy)phenyl)-1-(2-(dimethylamino)-2-oxoethyl)-1H-pyrazol-4-yl)pyrazolo[1,5-a]pyrimidine-3-carboxamide], the IC50 in assay [1] (Homo sapiens, BEAS-2B) was 29.8 nM. Further, the inhibition constant (Ki) in assay [2] stood at 0.27 nM; in assay [3], 0.75 nM.
Take `C=Cc1ccc(OC(F)F)c(-c2nn(CC(=O)N(C)C)cc2NC(=O)c2cnn3cccnc23)c1` [Example 13, N-(3-(2-(difluoromethoxy)-5-vinylphenyl)-1-(2-(dimethylamino)-2-oxoethyl)-1H-pyrazol-4-yl)pyrazolo[1,5-a]pyrimidine-3-carboxamide]: in assay [1] (Homo sapiens, BEAS-2B), the half-maximal inhibitory concentration (IC50) amounted to 24.1 nM. Also, the inhibitory constant (Ki) in assay [2] worked out at 0.51 nM; in assay [3] it was 1.17 nM.
As for `CN(C)C(=O)Cn1cc(NC(=O)c2cnn3cccnc23)c(-c2cc(C3CC3)ccc2OC(F)F)n1` [Example 14, N-(3-(5-cyclopropyl-2-(difluoromethoxy)phenyl)-1-(2-(dimethylamino)-2-oxoethyl)-1H-pyrazol-4-yl)pyrazolo[1,5-a]pyrimidine-3-carboxamide], the IC50 in assay [1] (Homo sapiens, BEAS-2B) is 47.3 nM. Besides, the Ki in assay [2] was found to be 0.8 nM; in assay [3] it was 1.99 nM.
For the compound `CN(C)C(=O)Cn1cc(NC(=O)c2cnn3cccnc23)c(-c2cc(Br)ccc2OC(F)F)n1` [Example 15, N-(3-(5-bromo-2-(difluoromethoxy)phenyl)-1-(2-(dimethylamino)-2-oxoethyl)-1H-pyrazol-4-yl)pyrazolo[1,5-a]pyrimidine-3-carboxamide], the IC50 in assay [1] (Homo sapiens, BEAS-2B) amounted to 14.3 nM. Moreover, the Ki in assay [2] worked out at 0.32 nM; in assay [3], 0.43 nM.
Taken in the same sequence, the figures for `CN(C)C(=O)Cn1cc(NC(=O)c2cnn3cccnc23)c(-c2cc(Cl)ccc2OC(F)F)n1` [Example 16, N-(3-(5-chloro-2-(difluoromethoxy)phenyl)-1-(2-(dimethylamino)-2-oxoethyl)-1H-pyrazol-4-yl)pyrazolo[1,5-a]pyrimidine-3-carboxamide] were 33.4 nM, 0.65 nM and 1.02 nM.
Taken in the same sequence, the figures for `CN(C)C(=O)Cn1cc(NC(=O)c2cnn3cccnc23)c(-c2cc(OC(F)F)ccc2OC(F)F)n1` [Example 17, N-(3-(2,5-bis(difluoromethoxy)phenyl)-1-(2-(dimethylamino)-2-oxoethyl)-1H-pyrazol-4-yl)pyrazolo[1,5-a]pyrimidine-3-carboxamide] were 14.1 nM, 0.26 nM and 0.72 nM.
Consider `CN1CC(O)(c2cccc(Oc3ccc(OC(F)F)c(-c4nn(CC(=O)N(C)C)cc4NC(=O)c4cnn5cccnc45)c3)c2)C1` [Example 18, N-(3-(2-(difluoromethoxy)-5-(3-(3-hydroxy-1-methylazetidin-3-yl)phenoxy)phenyl)-1-(2-(dimethylamino)-2-oxoethyl)-1H-pyrazol-4-yl)pyrazolo[1,5-a]pyrimidine-3-carboxamide], for which the IC50 in assay [1] (Homo sapiens, BEAS-2B) came out at 285 nM. Moreover, the Ki in assay [2] stood at 3.18 nM; in assay [3], 1.56 nM.
